# Assay results taken from patent US7691416B2, “Methods of treating vascular disease” (priority 2002, dated 2010).
# Test system: intimal hyperplasia after balloon injury of the carotid artery
# Assay: Balloon injury model of the carotid artery
# Format: in vivo, rat
# Conditions: CO 250 ppm for one hour prior to balloon injury; 14 days after injury; n=8-10
# Text: Animals. Male (250-350 g) Brown Norway rats (RT1^n) were used as aortic graft donors and male (250-350 g) Lewis rats (RT11) as recipients. Dawley (400-450 g) rats were used in the balloon injury model. Adult male C57BL/6, C57/S129, p21^−/− and p53^−/− null mice were purchased from Jackson Laboratory (Bar Harbor, Me.). mkk3^(−/−) null mice were generated as described Lu et al. (EMBO. 18:1845-1857 (1999)). The inos^−/− and enos^−/− mice were bred at the University of Pittsburgh. Aortic transplant model. Aortic transplantation was performed as described in Shimizu et al. (Nat. Med. 7:738-741 (2001)). Briefly, 3 to 4 cm of descending aorta was harvested from the donor and implanted between the renal arteries and the aortic bifurcation of the recipient. Both edges of the native abdominal aorta were ligated. Balloon injury model. Balloon angioplasty was carried out as described in Murakami et al. (Atherosclerosis 157:361-368 (2001)). […] [^3H]thymidine incorporation was measured by scintillation spectroscopy and presented as mean counts/min/well. […] Areas from eight to ten captured images were calculated using digital imaging software as number of pixels corresponding to those areas. Twenty-four to forty-eight sections from each group were statistically analyzed with SPSS software version 10. […]
structure (smiles),measurement,value
"[C-]#[O+] [CO, carbon monoxide]","Intimal hyperplasia, suppression compared to control animals exposed to air",74±8%
